Earlier results on 1 compound are cited in patent US20160310525A1, “PREPARATION FOR PREVENTION AND/OR TREATMENT OF PERI-IMPLANTITIS” (RLS GLOBAL AB, priority 2013, published 2016).

The series concerns biofilm on titan specimens.

Regarding `OCl` [sodium hypochlorite], the “antimicrobial effect on biofilm” value was “effective”.
